# Test results from US6420570B1, “Psoralen compounds” (priority 1993, dated 2002).
# Counter-ions that a name gives are not always drawn.
# Tested on: R17
# Assay: R17 bacteriophage inactivation screen, varying compound concentration
# Type: cell-based
# Settings: starting titer approx. 7.1 logs
# Experimental: The assay used to predict pathogen inactivation efficiency and to determine nucleic acid binding of the photoreactive binding compounds of the present invention was that in which a bacteriophage, R17, in solution with the desired substrate was irradiated. The ability of the phage to subsequently infect bacteria and inhibit their growth was measured. The bacteriophage was selected for its relatively accessible nucleic acid such that the culture growth inhibition would accurately reflect nucleic acid damage by the test compounds. The bacteriophage assay for nucleic acid binding to test compounds offers a safe and inexpensive procedure to identify compounds likely to display efficient pathogen inactivation. […] An aliquot (0.5 mL) was transferred to a 1.5 mL, snap-top polyethylene tube. An aliquot (0.004-0.040 mL) of the test compound stock solution prepared in water, ethanol or dimethylsulfoxide at 0.80-8.0 mM was added to the tube. Compounds were tested at concentrations between 4 μM and 320 μM. (AMT is commercially available from HRI, Inc., Concord, Calif.; 8-MOP is commercially available from Sigma, St. Louis, Mo.). The tubes were placed in a light device as described in EXAMPLE 1 and irradiated for between 1 and 10 minutes. […] To make the dilutions, a 0.100 mL aliquot of the irradiated solution of phage and test compound was added to the first dilution tube of 0.4 mL of media then 0.020 mL of this solution was added to the second tube of 0.5 mL medium (1:25). The second solution was then diluted serially (1:25) into the remaining tubes. […] After the top agar hardened, the plates were incubated at 37° C. overnight. The plaque forming units were then counted the following morning and the titer of the phage remaining after phototreatment was calculated based on the dilution factors. The following controls were run: the “phage only” in which phage was not treated with test compound and not irradiated (listed as “starting titer” in the tables below); the “UV only” in which the phage was irradiated in the absence of test compound; and the “dark” control in which the phage/test compound solution was not irradiated before it was diluted and plated.
smiles,measurement,setting,value
"Cc1oc2c(C)c3oc(=O)cc(C)c3cc2c1CNCCCCN [Compound 6, 4′-(6-Aminohexyl-2-aza)-4,5′,8-trimethylpsoralen Dihydrochloride]",R17 log kill 16 uM,"Table 6, 1 minute irradiation = 1.2 J/cm^2",>6.1 log
same,R17 log kill 32 uM,"Table 6, 32 uM, 1 minute irradiation = 1.2 J/cm^2",>6.1 log
same,R17 log kill 64 uM,"Table 6, 64 uM, 1 minute irradiation = 1.2 J/cm^2",>6.1 log
same,R17 log kill 8 uM,"Table 7, 8 uM, 1 minute irradiation",>6 log
same,R17 log kill 16 uM,"Table 7, 1 minute irradiation",>6 log
